From patent US11958812B2, “3, 5-disubstituted pyridine and 3, 5-disubstituted pyridazine derivatives and pharmaceutical use of same” (MITSUBISHI TANABE PHARMA CORPORATION, priority 2018, dated 2024)

Columns and labels:
[1] = tested on: bleomycin (BLM)-induced lung fibrosis model; assay: Mouse bleomycin-induced lung fibrosis model: fibrosis markers in plasma, BALF and lung; format: in vivo, female C57BL/6J mouse; settings: 30 mg/kg, bid, oral, 14 days
Method: [Consideration of Action of ATX Inhibitor on Mouse Bleomycin-Induced Lung Fibrosis Model]
The effectiveness of an ATX inhibitor (Example 5, hereinafter to be referred to as example 5 in the Figures) on bleomycin (BLM)-induced lung fibrosis model was evaluated using, as an index, variation of each fibrosis index marker in the plasma or BALF, or fibrosis related genes in the lung.
8-Week-old mice were grouped in the group constitution shown in Table 24 using a simulation method such that the body weight would become uniform before the previous day of bleomycin administration (SOP/STA/RA-0003). The mice were anesthetized with isoflurane, 0.5 mg/mL of bleomycin solution was intratracheally administered at 50 μL/head to produce a bleomycin-induced lung fibrosis model (1.25 U/kg). In the saline group, physiological saline was administered instead of bleomycin. The ATX inhibitor (Example 5) was orally administered two times per day from the day of bleomycin administration. In addition, the body weight was measured once per day from the day of grouping.
One equivalent of a mixture of 1N NaOH and 0.5% CMC solution (100 μL in total) relative to the ATX inhibitor (Example 5) was added, 10 zirconia beads (φ3 mm) were added, and they were pulverized using a mixer mill MM400 (frequency 28.01/min, pulverization time 10 min). 0.5% CMC was added to […] to give a suspension and the suspension was sonicated for 10 min. The administration dose volume was 10 mL/Kg and the administration dose amount was 30 mg/kg. Administration was performed twice per day and the initial administration was performed 30 min before BLM administration.
animal species: female C57BL/6J mouse, supply company: CHARLES RIVER LABORATORIES JAPAN, INC., number of animals used: 10 per group (age at arrival: 7 weeks old).
At 14 days from the bleomycin administration, plasma, BALF and lung tissue were collected. BALF was recovered and the concentration of LPA (18:2) in BALF (FIG. 6) was measured. After blood was collected from the abdominal vena cava, whole blood was anticoagulated using heparin and centrifuged to collect plasma. Then, the ATX activity (FIG. 5) and SP-D (FIG. 1) in the plasma were measured. Furthermore, the chest was opened and whole lung tissue was collected, and gene expression of each of Col1a1 (FIG. 2), CTGF (FIG. 3) and IL-6 (FIG. 4) in the lung was analyzed. For the gene expression analysis, mRNA was extracted from the lung tissue using TRIzol, reverse transcription was performed using a kit of Life technologies, and qPCR was performed using Tagman probe.
An organic solvent and LPA (17:0) solution as an internal standard substance were added to the collected BALF (200 μL), and the mixture was dried to solidness under reduced pressure at 35° C. […] The analysis sample was separated by reversed-phase column and LPA (18:2) was detected by the QTRAP6500 system (ABSciex). In addition, LPA (18:2) synthesis reference standard was added to PBS buffer used for recovery of BALF and compared with the analytical curve sample that underwent a similar pre-treatment, whereby the concentration of LPA (18:2) contained in BALF was calculated (FIG. 6).
The difference between the saline group and the BLM administration group and the difference between the BLM administration group and the compound administration group were analyzed by the Student's t-test wherein the significance level was 5% on both sides. […]

[2] = tested on: Macaca fascicularis laser-induced high intraocular pressure model; assay: Macaca fascicularis laser-induced high intraocular pressure model; format: in vivo; settings: left eye with high intraocular pressure
Method: [Study of Action of ATX Inhibitor on Macaca fascicularis Intraocular Pressure]
The efficacy of ATX inhibitor (Example 5, hereinafter indicated as in example 5 in the Figures) for Macaca fascicularis laser-induced high intraocular pressure model was evaluated using the intraocular pressure lowering action as an index.
A green laser beam at wavelength 532 nm was uniformly irradiated to 360° around of the trabecular meshwork, which is the excretory passage of the aqueous humor, of the left eye alone, whereby high intraocular pressure was induced. The right eye was maintained normal. […]
The required amount of ATX inhibitor (Example 5) was weighed, transferred to an agate mortar and lightly ground. […] The oral vehicle was added to increase the amount and the pH was confirmed to be not exceeding 11.0 (measured value: pH10.55-10.88).
A 0.04 mol/L boric acid/phosphoric acid/acetic acid mixed solution (307 mL) was mixed with a 0.2 mol/L aqueous sodium hydroxide solution (193 mL) (pH about 8.4), pH was adjusted to 8.5 with 1 mol/L hydrochloric acid to prepare Britton-Robinson buffer (pH 8.5). […] 4.5 mg of ATX inhibitor (Example 5) was measured in a 10 mL measuring flask, the instillation administration vehicle (9.6 mL) was added and the mixture was sonicated for 30 min in an ultrasonication washing machine set to about 40° C. […]

Question: Which “SP-D in the plasma” value ([1]; FIG. 1) does the source give for `COc1ccc(-c2cnnc(OC[C@H]3CC[C@H](C(F)(F)F)CC3)c2)nc1[C@H]1C[C@@H]1C(=O)O` [Example 5, (1S,2S)-2-[3-methoxy-6-(6-{[trans-4-(trifluoromethyl)cyclohexyl]methoxy}pyridazin-4-yl)pyridin-2-yl]cyclopropanecarboxylic Acid] here?
Answer: suppressed

Question: What about the “production of LPA (C18:2) in BALF” value ([1]; FIG. 6) of the same compound?
Answer: suppressive action

Question: And the “Col1a1 gene expression in the lung” value ([1]; mRNA in lung tissue, FIG. 2)?
Answer: expression suppressive action

Question: And the “CTGF gene expression in the lung” value ([1]; mRNA in lung tissue, FIG. 3)?
Answer: expression suppressive action

Question: What about the “IL-6 gene expression in the lung” value ([1]; mRNA in lung tissue, FIG. 4) of the same compound?
Answer: expression suppressive action

Question: And the “intraocular pressure lowering action, single instillation administration” value ([2]; instillation, 0.0135 mg/eye, FIG. 8)?
Answer: statistically significant intraocular pressure lowering action

Question: And the “intraocular pressure lowering action, single oral administration” value ([2]; oral, 100 mg/kg, FIG. 7)?
Answer: statistically significant intraocular pressure lowering action
